Data taken from patent US11351155B2, “Compositions and methods of modulating s-nitrosylation” (CASE WESTERN RESERVE UNIVERSITY, priority 2014, dated 2022).
One block for each molecule: values may come before it.

Assays:
WT and adh6Δ yeast = experiment: Metabolomic analysis of mevalonate, CoA and acetyl-CoA in treated yeast; format: cell-based, yeast (S. cerevisiae); settings: 2 hr
Protocol: In extracts of WT and adh6Δ yeast (untreated and following treatment with EtCysNO), mevalonate, CoA and acetyl-CoA were separated and quantified by GC-MS (mevalonate) or LC-MS/MS (CoA, acetyl-CoA).
Yeast cells grown to mid-log phase (absorbance 600 nm=0.4-0.6) were left untreated or treated with EtCysNO (100 μM) for 2 hrs. Cells were harvested and washed with ice-cold H2O containing 0.1 mM EDTA or DTPA and stored at −80° C. until further analysis. To the samples, 3 ml of MeOH: H2O (8:2) was added followed by addition of 100 μl of D4 (1 mM) citrate as an internal standard. Samples were homogenized for 1 minute and 1 ml of the subsequent homogenate was taken and centrifuged at 800 g for 20 minutes. Supernatant was dried by nitrogen gas. 60 μl of N,O-bistrifluoroacetaniide was added to the dried residue and incubated at 70° C. for 30 minutes. Analyses were carried out on an Agilent 5973 mass spectrometer, linked to a 6890 gas chromatograph system equipped with an autosampler. An Agilent VF-5MS capillary column (60 m×0.32 mm×0.25 μm) was used for chromatographic separation. The carrier gas was helium (1 ml/min) with a pulse pressure of 20.1 p.s.i. The injection was in splitless mode. The temperature for both inlet and transfer line was set at 300° C. The ion source and quadrupole temperature were set at 230 and 150° C. The GC temperature program was as follows: start at 80° C., hold for 1 min, and increase by 10° C./min to 300° C., and it remained at 300° C. for 9 min. Mevalonate and internal standard signals were monitored at its nominal m/z with SIM mode. The m/z monitored for mevalonate and internal standard: 349 and 469, respectively. All the masses were measured in Electron Impact Ion Source. The retention times of mevalonate and internal standard are 15.2 and 18.1 minutes, respectively.
Yeast cells grown to mid-log phase (absorbance 600 nm=0.4-0.6) were left untreated or treated with EtCysNO (500 μM) for 2 hrs. […]

intact yeast cells = experiment: SNO-RAC/iTRAQ identification of SNO-proteins in treated intact yeast; format: cell-based, yeast (S. cerevisiae); settings: intact cells treated with 100 μM for 2 hr
Protocol: Protein S-nitrosylation was assessed by the SNO-RAC assay, and differences in the profile of protein S-nitrosylation in WT versus adh6Δ yeast (under basal growth conditions and upon treatment of cells with EtCysNO) were quantified by iTRAQ labeling.
(§1) For analysis in yeast, cells were grown to absorbance 600 nm=1.0 and lysed by bead beating in lysis buffer (20 mM bis-tris propane, pH 7.0, 50 mM NaCl, 100 mM EDTA, 100 μM DTPA, 1 mM PMSF and protease inhibitor cocktail (Roche)). The lysate was centrifuged at 20,000 g for 10 min and the supernatant was adjusted to 1 mg/ml protein and retained for analysis. For analysis of SNO-proteins by mercury-coupled-photolysis-chemiluminescence, samples were processed as previously described. […] Eluates were analyzed by SDS-PAGE followed by Western blotting for erg10 (see below) or, for mass spectrometric analysis, individual lanes were excised from the gel and subjected to trypsin digest prior to processing for LC/MS-MS (see below). […]
(§2) Prior to analysis by LC-MS/MS, samples were passed through a C18 spin column (Thermo Pierce, Rockford, Ill.) and reconstituted in 0.1% formic acid. […] For peptide identification and quantification using iTRAQ reporter ions, MS analysis was performed using a hybrid linear ion trap Orbitrap Velos mass spectrometer (LTQ-Orbitrap Velos, Thermo, Waltham, Mass.). […]

Adh6 = target: T1, Adh6 (Saccharomyces cerevisiae, UniProt Q04894); experiment: Kinetic analysis and substrate specificity of SNO-CoA reductase activity of purified Adh6; format: biochemical, yeast (S. cerevisiae); settings: purified Adh6 20 nM, NADPH 100 μM, substrate 100 μM (FIG. 2D)
T1 construct: endogenous in cells; host or cells: S. cerevisiae cells; five-step chromatographic purification from crude extract
T1 sequence (Q04894 1-360): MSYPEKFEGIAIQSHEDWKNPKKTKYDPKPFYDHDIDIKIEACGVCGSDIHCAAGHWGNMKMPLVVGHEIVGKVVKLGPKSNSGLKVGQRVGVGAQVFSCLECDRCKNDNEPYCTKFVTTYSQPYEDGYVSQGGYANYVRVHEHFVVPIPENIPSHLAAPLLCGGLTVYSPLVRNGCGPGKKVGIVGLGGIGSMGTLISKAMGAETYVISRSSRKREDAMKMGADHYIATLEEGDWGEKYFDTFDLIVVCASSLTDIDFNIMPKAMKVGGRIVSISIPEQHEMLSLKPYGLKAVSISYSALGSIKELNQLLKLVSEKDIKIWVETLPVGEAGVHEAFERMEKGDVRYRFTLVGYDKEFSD
Protocol: (§3) Kinetic analysis was carried out with purified Adh6 and AKR1A1. The reactions contained a fixed concentration of NADPH (100 μM) and several concentrations of SNO-CoA.
(§4) Kinetic analysis was carried out employing assay conditions as above. For Km determination, reactions (4-5 replicates) were performed with a fixed amount of purified Adh6, 100 μM NADPH and SNO-CoA concentrations of 16-375 μM. Initial rates were calculated from the absorbance decrease at 340 nm using a combined extinction coefficient of 7.06 mM^−1 cm^−1 for SNO and NADPH. The kcat was determined at saturating substrate concentrations.

[1] = target: T2, Erg10 (acetoacetyl-CoA thiolase) (Saccharomyces cerevisiae, UniProt P41338); experiment: Assay for acetoacetyl-CoA thiolase (Erg10) activity; format: biochemical, yeast (S. cerevisiae); settings: for Effect on Erg10 thiolase activity: yeast extracts and purified protein (FIG. 4D, E)
T2 construct: Erg10 activity was assayed in extracts of WT yeast in the presence or absence of SNO-CoA; endogenous in cells; host or cells: wild-type S. cerevisiae lysate/extract
Protocol: Acetoacetyl-CoA thiolase activity was assayed in the physiological forward direction (2 acetyl-CoA→acetoactyl-CoA+CoA-SH) by following the formation of CoA-SH with 5,5′-dithiobis(2-nitrobenzoic acid) (DTNB) at 412 nm, as outlined recently for assay of HMG-CoA synthase activity. This approach avoids background absorbance in lysates and interference from added SNO-CoA in the reverse-reaction assay of acetoacetyl-CoA consumption at 300 nm (acetoacetyl-CoA+CoA-SH→2 acetyl-CoA). The assay was performed in 20 mM tris pH 8.0, containing 0.1 mM EDTA and 0.1 mM DTPA. The reaction mixture (1 ml) contained yeast lysate and 100 μM acetyl-CoA. Reaction without the addition of acetyl-CoA was used as background control. In some experiments, various concentrations of GSNO or SNO-CoA were also added. The reaction was monitored following the addition of 0.5 mM DTNB for 3 min at 412 nm. Thiolase activity was determined using rates between 1 and 3 minutes.

[2] = tested on: lysates of wild-type (WT) yeast; experiment: SNO-RAC/LC-MS/MS identification of SNO-proteins in treated yeast lysates; format: biochemical, yeast (S. cerevisiae); settings: lysates treated with 60 μM for 10 min
Protocol: as §1, with “described. For SNO-RAC, some samples (1 mg/ml) were left untreated or treated for 10 min with 60 μM SNO-CoA±100 μM NADPH. The reaction was stopped by adding 3 volumes of ice-cold acetone, followed by precipitation at −20° C. for 20 min.” for “described.”
as §2

[3] = substrate: CC(C)(COP(=O)(O)OP(=O)(O)OC[C@H]1O[C@@H](n2cnc3c(N)ncnc32)[C@H](O)[C@@H]1OP(=O)(O)O)[C@@H](O)C(=O)NCCC(=O)NCCSN=O; experiment: Kinetic analysis of SNO-CoA reductase activity of purified AKR1A1; format: biochemical, bovine; settings: other: purified AKR1A1, 100 μM NADPH; pH 7.0
Protocol: as §3
Kinetic analyses were carried out in 50 mM phosphate buffer, pH 7.0, containing 100 μM EDTA and DTPA. For Km determination, reactions (2-4 replicates) were performed with a fixed amount of purified AKR1A1, 100 μM NADPH and 2-500 μM SNO-CoA. Initial rates were calculated from the absorbance decrease at 340 nm. The kcat was determined at saturating substrate concentrations.

[4] = substrate: CC(C)(COP(=O)(O)OP(=O)(O)OC[C@H]1O[C@@H](n2cnc3c(N)ncnc32)[C@H](O)[C@@H]1OP(=O)(O)O)[C@@H](O)C(=O)NCCC(=O)NCCSN=O; experiment: Kinetic analysis and substrate specificity of SNO-CoA reductase activity of purified Adh6; format: biochemical, yeast (S. cerevisiae); settings: other: purified Adh6, 100 μM NADPH
Protocol: as §3, §4

T2 sequence (P41338 whole entry): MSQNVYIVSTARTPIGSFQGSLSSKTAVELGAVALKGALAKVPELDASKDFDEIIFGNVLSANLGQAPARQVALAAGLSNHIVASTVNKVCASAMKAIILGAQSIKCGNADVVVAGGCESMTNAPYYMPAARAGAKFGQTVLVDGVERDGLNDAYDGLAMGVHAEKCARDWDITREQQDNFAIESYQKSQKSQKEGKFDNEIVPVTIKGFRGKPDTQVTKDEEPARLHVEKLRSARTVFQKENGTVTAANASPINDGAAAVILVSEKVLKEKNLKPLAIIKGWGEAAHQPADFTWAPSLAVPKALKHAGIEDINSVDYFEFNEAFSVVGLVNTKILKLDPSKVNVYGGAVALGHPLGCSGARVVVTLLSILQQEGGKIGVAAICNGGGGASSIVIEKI

Molecule: CCOC(=O)[C@@H](N)CSN=O [EtCysNO, S-nitroso-cysteine ethyl ester]
- Change of mevalonate levels (WT and adh6Δ yeast; adh6Δ yeast, 100 μM): significant decrease
- Change of free CoA levels (WT and adh6Δ yeast; yeast, 500 μM): large decreases
- Change of acetyl-CoA levels (WT and adh6Δ yeast; yeast, 500 μM, increase larger in adh6Δ versus WT cells): increased
- Number of SNO-proteins identified (intact yeast cells): 103

- Metabolism by Adh6 (NADPH consumption) (Adh6): does not metabolize
Molecule: N[C@@H](CSN=O)C(=O)O [CysNO, S-nitroso-cysteine]

Molecule: CC(C)(COP(=O)(O)OP(=O)(O)OC[C@H]1O[C@@H](n2cnc3c(N)ncnc32)[C@H](O)[C@@H]1OP(=O)(O)O)[C@@H](O)C(=O)NCCC(=O)NCCSC(=O)CCC(=O)O [succinyl-CoA]
- Effect on Erg10 thiolase activity [1]: neither GSNO (FIG. 4D) nor succinyl-CoA (a CoA analogue) (FIG. 4E) had a significant effect

- Metabolism by Adh6 (NADPH consumption) (Adh6): specific for SNO-CoA versus GSNO
Molecule: N[C@@H](CCC(=O)N[C@@H](CSN=O)C(=O)NCC(=O)O)C(=O)O [GSNO, S-nitrosoglutathione]
- Effect on Erg10 thiolase activity [1]: neither GSNO (FIG. 4D) nor succinyl-CoA (a CoA analogue) (FIG. 4E) had a significant effect

Molecule: CC(C)(COP(=O)(O)OP(=O)(O)OC[C@H]1O[C@@H](n2cnc3c(N)ncnc32)[C@H](O)[C@@H]1OP(=O)(O)O)[C@@H](O)C(=O)NCCC(=O)NCCSN=O [SNO-CoA, S-nitroso-CoA]
- IC50 ([1]; purified protein, read-out: IC50 for inhibition of Erg10 thiolase activity): 4 µM
- Effect on Erg10 thiolase activity [1]: potently inhibited
- Number of SNO-proteins identified [2]: 345

B1: AKR1A1 (Bos taurus) (protein)
chain: MAASCILLHTGQKMPLIGLGTWKSDPGQVKAAIKYALSVGYRHIDCAAIYGNETEIGEALKENVGPGKLVPREELFVTSKLWNTKHHPEDVEPALRKTLADLQLEYLDLYLMHWPYAFERGDSPFPKNADGTIRYDSTHYKETWRALEALVAKGLVRALGLSNFNSRQIDDVLSVASVRPAVLQVECHPYLAQNELIAHCQARNLEVTAYSPLGSSDRAWRDPEEPVLLKEPVVLALAEKHGRSPAQILLRWQVQRKVSCIPKSVTPSRILENIQVFDFTFSPEEMKQLDALNKNLRFIVPMLTVDGKRVPRDAGHPLYPFNDPY
notes: Bovine kidney tissue (˜50 g) was suspended in 100 ml of lysis buffer; tissue Rockland Immunochemicals Inc. (tissue supplier); host or cells: bovine kidney
- Km [3]: 20.5 ± 1.8 µM
- kcat [3]: 10.4 ± 0.396 s⁻¹

B2: Adh6 (Saccharomyces cerevisiae S288C) (protein)
chain: MSYPEKFEGIAIQSHEDWKNPKKTKYDPKPFYDHDIDIKIEACGVCGSDIHCAAGHWGNMKMPLVVGHEIVGKVVKLGPKSNSGLKVGQRVGVGAQVFSCLECDRCKNDNEPYCTKFVTTYSQPYEDGYVSQGGYANYVRVHEHFVVPIPENIPSHLAAPLLCGGLTVYSPLVRNGCGPGKKVGIVGLGGIGSMGTLISKAMGAETYVISRSSRKREDAMKMGADHYIATLEEGDWGEKYFDTFDLIVVCASSLTDIDFNIMPKAMKVGGRIVSISIPEQHEMLSLKPYGLKAVSISYSALGSIKELNQLLKLVSEKDIKIWVETLPVGEAGVHEAFERMEKGDVRYRFTLVGYDKEFSD
notes: endogenous in cells; host or cells: S. cerevisiae cells; five-step chromatographic purification from crude extract
- Km [4]: 180.5 ± 16.8 µM
- kcat [4]: 43.275 ± 1.845 s⁻¹
